Reference: patent EP4137133A1, “CRYSTALLINE FORM OF AVACOPAN” (Sandoz AG, priority 2021, dated 2023)
Blank lines part the entries; values can stand above or below the compound they belong to.

Tests used:
[1] = Powder dissolution of crystalline avacopan forms in 0.1N HCl; format: physicochemical; conditions: 37°C; for Concentration: HPLC 243 nm
Procedure: Powder dissolution experiments were carried out in 0.1N HCl at 37°C for the crystalline form of avacopan disclosed in WO 2021/092292 A1 and the crystalline Form HyA of avacopan of the present invention. Particle sizes of the forms were kept as similar as possible to allow for proper comparison. The respective concentrations were determined by HPLC at a wavelength of 243 nm.

[2] = Gravimetric moisture sorption (GMS); format: physicochemical; conditions: 25 ± 0.1 °C
Procedure: Moisture sorption isotherms were recorded with an SPSx-1µ moisture sorption analyzer (ProUmid, Ulm) together with other samples. The measurement cycle was started at ambient relative humidity (RH) of 40%. RH was then decreased to 5% in 5% steps, followed by a further decrease to 3% and to 0%. […] Finally, RH was increased to ambient relative humidity of […] in 5% steps. The time per step was set to a minimum of 2 hours and a maximum of 6 hours. If an equilibrium condition with a constant mass of ± 0.01% within 1 hour was reached before the maximum time for all examined samples the sequential humidity step was applied before the maximum time of 6 hours. If no equilibrium was achieved the consecutive humidity step was applied after the maximum time of 6 hours. The temperature was 25 ± 0.1 °C.

- Concentration ([1]; time 0 h): 0 ng/mL
- Concentration ([1]; time 0.25 h, listed as Form HyA of present invention): 72000 ng/mL
- Concentration ([1]; time 0.5 h, listed as Form HyA of present invention): 68000 ng/mL
- Concentration ([1]; time 0.75 h, listed as Form HyA of present invention): 60000 ng/mL
- Concentration ([1]; time 1 h, listed as Form HyA of present invention): 52000 ng/mL
- Concentration ([1]; time 1.25 h, listed as Form HyA of present invention): 43000 ng/mL
- Concentration ([1]; time 1.5 h, listed as Form HyA of present invention): 40000 ng/mL
- Concentration ([1]; time 1.75 h, listed as Form HyA of present invention): 36000 ng/mL
- Concentration ([1]; time 2 h, listed as Form HyA of present invention): 35000 ng/mL
- solubility in 0.1N HCl compared to the crystalline form of avacopan disclosed in WO 2021/092292 A1 ([1]; whole range from 15 minutes to 2 hours): significantly increased solubility
- mass change (0-15% RH) ([2]; GMS, 0-15% RH): 2.2 w-%
- mass change (0-90%RH) ([2]; GMS, 0-90% RH): 3.2 w-%
- mass change (15-90%) ([2]; GMS, 15-90% RH): 1.0 w-%
- hygroscopicity ([2]; GMS, range of 15-90% RH): slightly hygroscopic
- mass change ([2]; GMS, range of 15-90% RH): 1.0%
- water released ([2]; GMS, very dry conditions, below 15-0% RH): 2.2%
- PXRD after the GMS experiment (physical stability) ([2]; after sorption/desorption cycles 0-90% RH): still shows the same PXRD
SMILES: Cc1ccc(NC(=O)[C@H]2CCCN(C(=O)c3c(C)cccc3F)[C@H]2c2ccc(NC3CCCC3)cc2)cc1C(F)(F)F [Form HyA, (2R,3S)-2-(4-(cyclopentylamino)phenyl)-1-(2-fluoro-6-methylbenzoyl)-N-(4-methyl-3-(trifluoromethyl)phenyl)piperidine-3-carboxamide]

- Concentration ([1]; time 0.25 h): 4000 ng/mL
- Concentration ([1]; time 0.5 h): 6000 ng/mL
- Concentration ([1]; time 0.75 h): 6000 ng/mL
- Concentration ([1]; time 1 h): 7000 ng/mL
- Concentration ([1]; time 1.25 h): 7000 ng/mL
- Concentration ([1]; time 1.5 h): 8000 ng/mL
- Concentration ([1]; time 1.75 h): 8000 ng/mL
- Concentration ([1]; time 2 h): 8000 ng/mL
SMILES: Cc1ccc(NC(=O)[C@H]2CCCN(C(=O)c3c(C)cccc3F)[C@H]2c2ccc(NC3CCCC3)cc2)cc1C(F)(F)F [Crystalline Form of WO 2021/092292 A1, (2R,3S)-2-(4-(cyclopentylamino)phenyl)-1-(2-fluoro-6-methylbenzoyl)-N-(4-methyl-3-(trifluoromethyl)phenyl)piperidine-3-carboxamide, reference compound]
